As usually defined, the melting point is the temperature, or range, at which the solid turns liquid.

Consider `COC(=O)c1nc(-c2ccc(=O)n(C(C)C)n2)c(-c2ccccc2)nc1OC` [Example 24, Methyl 6-(1-isopropyl-6-oxo-1,6-dihydro-3-pyridazinyl)-3-methoxy-5-phenyl-2-pyrazinecarboxylate], for which the melting point lay in the range of 170 to 171 °C.

In the case of `Cn1nc(-c2nc(-c3ccccc3)c(N)nc2-c2ccccc2)ccc1=O` [Example 85, 6-(5-amino-3,6-diphenyl-2-pyrazinyl)-2-methyl-3(2H)-pyridazinone], the melting point lay in the range of 220 to 221.5 °C.

`CC(C)n1nc(-c2nc(NC=O)c(C#N)nc2-c2ccccc2)ccc1=O` [Example 25, [3-Cyano-6-(1-isopropyl-6-oxo-1,6-dihydro-3-pyridazinyl)-5-phenyl-2-pyrazinyl]formamide] displayed a melting point of 206 to 208 °C.

The compound `Cn1nc(-c2nc(-n3ccnc3)c(N)nc2-c2ccccc2)ccc1=O` [Example 154, 6-[5-amino-6-(1H-imidazol-1-yl)-3-phenyl-2-pyrazinyl]-2-methyl-3(2H)-pyridazinone] registered a melting point greater than 250 °C.

For `Cn1nc(-c2nc(C(=O)O)c(N)nc2-c2ccccc2)ccc1=O` [Example 19, 3-Amino-6-(1-methyl-6-oxo-1,6-dihydro-3-pyridazinyl)-5-phenyl-2-pyrazinecarboxylic acid], the melting point was 238 °C (dec.).

With `Cn1nc(-c2nc(NCCN3CCOCC3)c(N)nc2-c2ccccc2)ccc1=O` [Example 122, 6-(5-amino-6-{[2-(4-morpholinyl)ethyl]amino}-3-phenyl-2-pyrazinyl)-2-methyl-3(2H)-pyridazinone], the melting point lay in the range of 226 to 229 °C.

Regarding `CC(C)n1nc(-c2nc(-c3nc(-c4ccccc4)cs3)c(N)nc2-c2ccccc2)ccc1=O` [Example 28, 6-[5-Amino-3-phenyl-6-(4-phenyl-thiazol-2-yl)-2-pyrazinyl]-2-isopropyl-3(2H)-pyridazinone], the melting point was in the range of 240 to 242 °C.

Take `CC(C)n1nc(-c2nc(C(=O)O)c(N)nc2-c2ccccc2Br)ccc1=O` [Example 198, 3-amino-5-(2-bromophenyl)-6-(1-isopropyl-6-oxo-1,6-dihydro-3-pyridazinyl)-2-pyrazinecarboxylic acid]: the melting point was 237 °C (dec.).

`C#Cc1nc(-c2ccc(=O)n(C(C)C)n2)c(-c2ccccc2)nc1N` [Example 76, 6-(5-amino-6-ethynyl-3-phenyl-2-pyrazinyl)-2-isopropyl-3(2H)-pyridazinone]: the melting point is 217 °C (dec.).

With `Cn1nc(-c2nc(OCCCc3ccccc3)c(N)nc2-c2ccccc2)ccc1=O` [Example 183, 6-[5-amino-3-phenyl-6-(3-phenylpropoxy)-2-pyrazinyl]-2-methyl-3(2H)-pyridazinone], the melting point fell in the range of 91 to 94 °C.

`CC(C)n1nc(-c2nc(C#N)c(N)nc2-c2ccccc2Br)ccc1=O` [Example 188, 3-amino-5-(2-bromophenyl)-6-(1-isopropyl-6-oxo-1,6-dihydro-3-pyridazinyl)-2-pyrazinecarbonitrile] displayed a melting point of 240 to 243 °C.

Consider `CC(C)n1nc(-c2nc(OCCc3ccccc3)c(N)nc2-c2ccccc2)ccc1=O` [Example 174, 6-[5-amino-3-phenyl-6-(2-phenylethoxy)-2-pyrazinyl]-2-isopropyl-3(2H)-pyridazinone], for which the melting point lay in the range of 173 to 176 °C.

In turn, `CC(C)n1nc(-c2nc(NCCCc3ccccc3)c(N)nc2-c2ccccc2)ccc1=O` [Example 136, 6-{5-amino-3-phenyl-6-[(3-phenylpropyl)amino]-2-pyrazinyl}-2-isopropyl-3(2H)-pyridazinone] came in with a melting point of 185.5 to 187 °C.

Take `CC(C)n1nc(-c2nc(NCCN(C)C)c(N)nc2-c2ccccc2)ccc1=O` [Example 132, 6-(5-amino-6-{[2-(dimethylamino)ethyl]amino}-3-phenyl-2-pyrazinyl)-2-isopropyl-3(2H)-pyridazinone]: the melting point lay in the range of 188 to 189 °C.

Turning to `Cc1nc(-c2ccc(=O)n(C(C)C)n2)c(-c2ccccc2)nc1N` [Example 3, 6-(5-amino-6-methyl-3-phenyl-2-pyrazinyl)-2-isopropyl-3(2H)-pyridazinone], the melting point lay in the range of 208 to 209.5 °C.

With `CC(C)n1nc(-c2nc(N3CC4CCC(C3)O4)c(N)nc2-c2ccccc2)ccc1=O` [Example 119, 6-[5-amino-6-(8-oxa-3-azabicyclo[3.2.1]oct-3-yl)-3-phenyl-2-pyrazinyl]-2-isopropyl-3(2H)-pyridazinone], the melting point lay in the range of 235 to 238 °C.

In turn, `CC(C)n1nc(-c2nc(-c3cnn(C)c3)c(N)nc2-c2ccccc2)ccc1=O` [Example 93, 6-[5-amino-6-(1-methyl-1H-pyrazol-4-yl)-3-phenyl-2-pyrazinyl]-2-isopropyl-3(2H)-pyridazinone] gave a melting point of 201 to 203 °C.

Compound `CC(C)n1nc(-c2nc(NCCc3ccccc3)c(N)nc2-c2ccccc2)ccc1=O` [Example 135, 6-{5-amino-3-phenyl-6-[(2-phenylethyl)amino]-2-pyrazinyl}-2-isopropyl-3(2H)-pyridazinone] had a melting point of 204.5 to 207 °C.

With `CC(C)n1nc(-c2nc(N3CCCC3)c(N)nc2-c2ccccc2)ccc1=O` [Example 141, 6-[5-amino-3-phenyl-6-(1-pyrrolidinyl)-2-pyrazinyl]-2-isopropyl-3(2H)-pyridazinone], the melting point was 192 to 194.5 °C.

Regarding `COc1nc(-c2ccccc2)c(-c2ccc(=O)n(C(C)C)n2)nc1C#N` [Example 22, 6-(1-isopropyl-6-oxo-1,6-dihydro-3-pyridazinyl)-3-methoxy-5-phenyl-2-pyrazinecarbonitrile], the melting point lay within 170 to 172 °C.

Take `CC(C)n1nc(-c2nc(C#N)c(C#N)nc2-c2ccccc2Br)ccc1=O` [Example 195, 5-(2-bromophenyl)-6-(1-isopropyl-6-oxo-1,6-dihydro-3-pyridazinyl)-2,3-pyrazinedicarbonitrile]: the melting point was in the range of 159.5 to 161 °C.

In turn, `CC(C)n1nc(-c2nc(-c3cccs3)c(N)nc2-c2ccccc2)ccc1=O` [Example 80, 6-[5-amino-3-phenyl-6-(2-thienyl)-2-pyrazinyl]-2-isopropyl-3(2H)-pyridazinone] gave a melting point of 181 to 183 °C.

`CC(=O)c1nc(-c2ccc(=O)n(C(C)C)n2)c(-c2ccccc2)nc1N` [Example 94, 6-(6-acetyl-5-amino-3-phenyl-2-pyrazinyl)-2-isopropyl-3(2H)-pyridazinone] registered a melting point of 234 to 236.5 °C.

In turn, `CC(C)n1nc(-c2nc(NCCc3ccccn3)c(N)nc2-c2ccccc2)ccc1=O` [Example 106, 6-(5-amino-3-phenyl-6-{[2-(2-pyridyl)ethyl]amino}-2-pyrazinyl)-2-isopropyl-3(2H)-pyridazinone] yielded a melting point of 204 to 206 °C.

As to `CC(C)n1nc(-c2nc(N(C)C)c(N)nc2-c2ccccc2)ccc1=O` [Example 96, 6-[5-amino-6-(dimethylamino)-3-phenyl-2-pyrazinyl]-2-isopropyl-3(2H)-pyridazinone], the melting point was 174 to 176 °C.

As for `Cn1nc(-c2nc(N(CCO)Cc3ccccc3)c(N)nc2-c2ccccc2)ccc1=O` [Example 143, 6-{5-amino-6-[benzyl(2-hydroxyethyl)amino]-3-phenyl-2-pyrazinyl}-2-methyl-3(2H)-pyridazinone], the melting point lay in the range of 210 to 212 °C.

Turning to `CC(C)n1nc(-c2nc(N3CCN(Cc4ccccn4)CC3)c(N)nc2-c2ccccc2)ccc1=O` [Example 114, 6-{5-amino-3-phenyl-6-[4-(2-pyridylmethyl)-1-piperazinyl]-2-pyrazinyl}-2-isopropyl-3(2H)-pyridazinone], the melting point was in the range of 88 to 91 °C.

The compound `COc1ccc(N2CCN(c3nc(-c4ccc(=O)n(C(C)C)n4)c(-c4ccccc4)nc3N)CC2)cc1` [Example 116, 6-{5-amino-6-[4-(4-methoxyphenyl)-1-piperazinyl]-3-phenyl-2-pyrazinyl}-2-isopropyl-3(2H)-pyridazinone] gave a melting point of 194 to 196 °C.

As to `CC(C)n1nc(-c2nc(C(=O)O)c(N)nc2-c2ccccc2)ccc1=O` [Example 8, 3-amino-6-(1-isopropyl-6-oxo-1,6-dihydro-3-pyridazinyl)-5-phenyl-2-pyrazinecarboxylic acid], the melting point fell in the range of 233 to 235 °C.

Turning to `CC(C)n1nc(-c2nc(C(N)=O)c(C#N)nc2-c2ccccc2)ccc1=O` [Example 23, 3-Cyano-6-(1-isopropyl-6-oxo-1,6-dihydro-3-pyridazinyl)-5-phenyl-2-pyrazinecarboxamide], the melting point was 195 to 197 °C.

`CC(C)n1nc(-c2nc(NC3CCN(Cc4ccccc4)C3)c(N)nc2-c2ccccc2)ccc1=O` (stereo not drawn) [Example 138, 6-{5-amino-6-[(1-benzyl-3-pyrrolidinyl)amino]-3-phenyl-2-pyrazinyl)-2-isopropyl-3(2H)-pyridazinone] displayed a melting point of 86 to 91 °C.

With `CC(C)n1nc(-c2nc(N)c(C#N)nc2-c2ccccc2Br)ccc1=O` [Example 197, 3-amino-6-(2-bromophenyl)-5-(1-isopropyl-6-oxo-1,6-dihydro-3-pyridazinyl)-2-pyrazinecarbonitrile], the melting point fell in the range of 241 to 243 °C.

With `CC(C)n1nc(-c2nc(N3CCC(N(C)C)C3)c(N)nc2-c2ccccc2)ccc1=O` (stereo not drawn) [Example 109, 6-{5-amino-6-[3-(dimethylamino)-1-pyrrolidinyl]-3-phenyl-2-pyrazinyl}-2-isopropyl-3(2H)-pyridazinone], the melting point fell in the range of 150 to 152 °C.

On to `CC(C)n1nc(-c2nc(Br)c(N)nc2-c2ccccc2)ccc1=O` [Example 53, 6-(5-amino-6-bromo-3-phenyl-2-pyrazinyl)-2-isopropyl-3(2H)-pyridazinone], for which the melting point lay in the range of 204 to 206 °C.

In the case of `CC(C)n1nc(-c2nc(-n3cncn3)c(N)nc2-c2ccccc2)ccc1=O` [Example 151, 6-[5-amino-3-phenyl-6-(1H-1,2,4-triazol-1-yl)-2-pyrazinyl]-2-isopropyl-3(2H)-pyridazinone], the melting point was 240 to 241.5 °C.

`CC(C)n1nc(-c2nc(NCC3CCCCC3)c(N)nc2-c2ccccc2)ccc1=O` [Example 105, 6-{5-amino-6-[(cyclohexylmethyl)amino]-3-phenyl-2-pyrazinyl}-2-isopropyl-3(2H)-pyridazinone] returned a melting point of 219 to 221 °C.

(Values after US7265120B2, “Pyrazine derivatives and pharmaceutical use thereof” (Astellas Pharma Inc., priority 2004, dated 2007).)
